Where a SMILES comes first, the peptide text is derived from it. [ ]: non-standard residue; d: D form. The star is where a group is joined. NHCH2CH2OH = OCCN*; For = O=C*
Tests used:
[1] = tested on: P388 mouse leukemia cells; conditions: 92 h
In short: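 P388 cells at 1 × 10^4 cells/mL (final) were exposed to library peptides (stocks diluted 250-fold in RPMI1640/10% FBS) for 92 h at 37 °C, 5% CO2. Viable cells were counted by WST-1/1-methoxy PMS (4 h), absorbance 415 nm, and expressed as cell viability (%).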

[2] = H+/Na+ transport assay of bead-derived peptides (one-point); type: biochemical; set-up: key: relative activity; mean of two control wells = 1.00; conditions: bead-derived peptide solution, EYPC/EYPG LUVs;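 note: relative to parent gramicidin A activity set to 1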
In short: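 Values are normalized fluorescence, with Triton X-100 defining 100% and untreated LUVs 0%, and the two control wells averaging 1.00. Vesicles carried 1.0 mM pyranine and included egg yolk phosphatidylglycerol. Peptides were incubated with them 30 min at room temperature.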

[3] = tested on: Streptococcus pyogenes SSI-9; test: Antibacterial activity assay of bead-derived peptides (three concentrations); type: cell-based; set-up: key: +++: inhibition by the 640-fold diluted peptide solution; ++: inhibition by the 160-fold diluted solution; +: inhibition by the 40-fold diluted solution; -: no inhibition; conditions: S. pyogenes, bead-derived peptide solution, three concentrations
In short: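 Library peptide stock applied undiluted, 4-fold and 16-fold diluted in DMSO to S. pyogenes SSI-9 (2 × 10^5 CFU) in cation-adjusted Mueller Hinton broth with 5% laked horse blood. After 18 h at 37 °C, growth judged by visible cell precipitation.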

Row | SMILES | cell viability/% [1] | H+/Na+ transport activity normalized against the value of 1 (1.00) [2] | antibacterial activity [3]
1 | CC(C)C[C@@H](NC(=O)[C@H](C)NC(=O)[C@H](NC(=O)[C@H](C)NC(=O)CNC(=O)[C@@H](NC=O)C(C)C)C(C)C)C(=O)N[C@H](C(=O)N[C@H](CC(C)C)C(=O)N[C@@H](Cc1c[nH]c2ccccc12)C(=O)N[C@@H](C(=O)N[C@@H](Cc1c[nH]c2ccccc12)C(=O)N[C@H](CC(C)C)C(=O)N[C@@H](Cc1c[nH]c2ccccc12)C(=O)N[C@H](CC(C)C)C(=O)N[C@@H](Cc1c[nH]c2ccccc12)C(=O)NCCO)C(C)C)C(C)C [compound 11439] (For-VGA[dV]A[dL]V[dL]W[dV]W[dL]W[dL]W-NHCH2CH2OH) | 8.1% | 1.18 | -
2 | CC(C)[C@H](NC=O)C(=O)NCC(=O)N[C@@H](C)C(=O)N[C@@H](C(=O)N[C@@H](C)C(=O)N[C@@H](C(=O)N[C@H](C(=O)N[C@@H](C(=O)N[C@@H](Cc1c[nH]c2ccccc12)C(=O)N[C@@H](C(=O)N[C@@H](Cc1c[nH]c2ccccc12)C(=O)N[C@@H](C(=O)N[C@@H](Cc1c[nH]c2ccccc12)C(=O)N[C@@H](C(=O)N[C@@H](Cc1c[nH]c2ccccc12)C(=O)NCCO)C(C)C)C(C)C)C(C)C)C(C)C)C(C)C)C(C)C)[C@H](C)O [compound 11453] (For-VGA[dT]A[dV]V[dV]W[dV]W[dV]W[dV]W-NHCH2CH2OH) | 49.2% | 1.04 | -
3 | CC(C)C[C@@H](NC(=O)[C@H](C)NC(=O)[C@H](NC(=O)[C@H](C)NC(=O)CNC(=O)[C@@H](NC=O)C(C)C)[C@H](C)O)C(=O)N[C@H](C(=O)N[C@H](CC(C)C)C(=O)N[C@@H](Cc1c[nH]c2ccccc12)C(=O)N[C@@H](C(=O)N[C@@H](Cc1c[nH]c2ccccc12)C(=O)N[C@H](CC(C)C)C(=O)N[C@@H](Cc1c[nH]c2ccccc12)C(=O)N[C@H](CC(C)C)C(=O)N[C@@H](Cc1c[nH]c2ccccc12)C(=O)NCCO)C(C)C)C(C)C [compound 11561] (For-VGA[dT]A[dL]V[dL]W[dV]W[dL]W[dL]W-NHCH2CH2OH) | 100.0% | 1.01 | -
4 | CNC(=O)C[C@@H](NC(=O)[C@@H](NC(=O)[C@@H](CC(C)C)NC(=O)[C@H](C)NC(=O)[C@@H](CC(C)C)NC(=O)[C@H](C)NC(=O)CNC(=O)[C@@H](NC=O)C(C)C)C(C)C)C(=O)N[C@@H](Cc1c[nH]c2ccccc12)C(=O)N[C@@H](C(=O)N[C@@H](Cc1c[nH]c2ccccc12)C(=O)N[C@@H](C(=O)N[C@@H](Cc1c[nH]c2ccccc12)C(=O)N[C@H](CC(C)C)C(=O)N[C@@H](Cc1c[nH]c2ccccc12)C(=O)NCCO)C(C)C)C(C)C [compound 11601] (For-VGA[dL]A[dL]V[dD](NHMe)W[dV]W[dV]W[dL]W-NHCH2CH2OH) | 98.9% | 1.23 | -
5 | CC(C)C[C@@H](NC(=O)[C@H](C)NC(=O)CNC(=O)[C@@H](NC=O)C(C)C)C(=O)N[C@@H](C)C(=O)N[C@H](CC(C)C)C(=O)N[C@H](C(=O)N[C@H](CC(C)C)C(=O)N[C@@H](Cc1c[nH]c2ccccc12)C(=O)N[C@@H](C(=O)N[C@@H](Cc1c[nH]c2ccccc12)C(=O)N[C@@H](C(=O)N[C@@H](Cc1c[nH]c2ccccc12)C(=O)N[C@H](CC(C)C)C(=O)N[C@@H](Cc1c[nH]c2ccccc12)C(=O)NCCO)C(C)C)[C@H](C)O)C(C)C [compound 11660] (For-VGA[dL]A[dL]V[dL]W[dT]W[dV]W[dL]W-NHCH2CH2OH) | 100.0% | 1.09 | -
6 | CC(C)C[C@@H](NC(=O)[C@H](Cc1c[nH]c2ccccc12)NC(=O)[C@@H](CC(C)C)NC(=O)[C@@H](NC(=O)[C@H](NC(=O)[C@H](C)NC(=O)[C@H](NC(=O)[C@H](C)NC(=O)CNC(=O)[C@@H](NC=O)C(C)C)[C@H](C)O)C(C)C)C(C)C)C(=O)N[C@@H](Cc1c[nH]c2ccccc12)C(=O)N[C@@H](C(=O)N[C@@H](Cc1c[nH]c2ccccc12)C(=O)N[C@@H](C(=O)N[C@@H](Cc1c[nH]c2ccccc12)C(=O)NCCO)C(C)C)C(C)C [compound 11772] (For-VGA[dT]A[dV]V[dL]W[dL]W[dV]W[dV]W-NHCH2CH2OH) | 100.0% | 1.04 | -
7 | CNC(=O)C[C@@H](NC(=O)[C@@H](NC(=O)[C@H](NC(=O)[C@H](C)NC(=O)[C@H](NC(=O)[C@H](C)NC(=O)CNC(=O)[C@@H](NC=O)C(C)C)C(C)C)C(C)C)C(C)C)C(=O)N[C@@H](Cc1c[nH]c2ccccc12)C(=O)N[C@H](CC(C)C)C(=O)N[C@@H](Cc1c[nH]c2ccccc12)C(=O)N[C@H](CC(C)C)C(=O)N[C@@H](Cc1c[nH]c2ccccc12)C(=O)N[C@@H](C(=O)N[C@@H](Cc1c[nH]c2ccccc12)C(=O)NCCO)C(C)C [compound 11796] (For-VGA[dV]A[dV]V[dD](NHMe)W[dL]W[dL]W[dV]W-NHCH2CH2OH) | 100.0% | 1.33 | -
8 | CC(C)C[C@@H](NC(=O)[C@H](C)NC(=O)CNC(=O)[C@@H](NC=O)C(C)C)C(=O)N[C@@H](C)C(=O)N[C@H](CC(C)C)C(=O)N[C@H](C(=O)N[C@@H](C(=O)N[C@@H](Cc1c[nH]c2ccccc12)C(=O)N[C@@H](C(=O)N[C@@H](Cc1c[nH]c2ccccc12)C(=O)N[C@@H](C(=O)N[C@@H](Cc1c[nH]c2ccccc12)C(=O)N[C@H](CC(C)C)C(=O)N[C@@H](Cc1c[nH]c2ccccc12)C(=O)NCCO)C(C)C)C(C)C)C(C)C)C(C)C [compound 12040] (For-VGA[dL]A[dL]V[dV]W[dV]W[dV]W[dL]W-NHCH2CH2OH) | 100.0% | 1.07 | +
9 | CC(C)C[C@@H](NC(=O)[C@H](C)NC(=O)CNC(=O)[C@@H](NC=O)C(C)C)C(=O)N[C@@H](C)C(=O)N[C@H](CC(C)C)C(=O)N[C@H](C(=O)N[C@@H](C(=O)N[C@@H](Cc1c[nH]c2ccccc12)C(=O)N[C@@H](C(=O)N[C@@H](Cc1c[nH]c2ccccc12)C(=O)N[C@@H](C(=O)N[C@@H](Cc1c[nH]c2ccccc12)C(=O)N[C@H](CC(C)C)C(=O)N[C@@H](Cc1c[nH]c2ccccc12)C(=O)NCCO)C(C)C)[C@H](C)O)C(C)C)C(C)C [compound 12081] (For-VGA[dL]A[dL]V[dV]W[dT]W[dV]W[dL]W-NHCH2CH2OH) | 100.0% | 1.01 | -
10 | CC(C)C[C@@H](NC(=O)[C@H](C)NC(=O)CNC(=O)[C@@H](NC=O)C(C)C)C(=O)N[C@@H](C)C(=O)N[C@@H](C(=O)N[C@H](C(=O)N[C@@H](C(=O)N[C@@H](Cc1c[nH]c2ccccc12)C(=O)N[C@@H](C(=O)N[C@@H](Cc1c[nH]c2ccccc12)C(=O)N[C@@H](C(=O)N[C@@H](Cc1c[nH]c2ccccc12)C(=O)N[C@@H](C(=O)N[C@@H](Cc1c[nH]c2ccccc12)C(=O)NCCO)C(C)C)C(C)C)C(C)C)C(C)C)C(C)C)C(C)C [compound 12092] (For-VGA[dL]A[dV]V[dV]W[dV]W[dV]W[dV]W-NHCH2CH2OH) | 100.0% | 1.14 | +

Reference: paper PMC7531004, “Discovery of gramicidin A analogues with altered activities by multidimensional screening of a one-bead-one-compound library” (Nature Communications, 2020)
